From patent publication US9675538B2, “Anti-aging agent containing arctigenin derivative” (ROHTO Pharmaceutical Co., Ltd., priority 2012, dated 2017)

Key:
[1] = molecular target: T1, elastase (derived from human leukocyte) (Homo sapiens, UniProt P08246); test: Elastase activity measurement; type: biochemical; details: compared with arctigenin; 37° C., 2 hours, absorbance at 405 nm
T1 construct: elastase (derived from human leukocyte); from tissue; host or cells: human leukocyte
T1 sequence (P08246 30-267): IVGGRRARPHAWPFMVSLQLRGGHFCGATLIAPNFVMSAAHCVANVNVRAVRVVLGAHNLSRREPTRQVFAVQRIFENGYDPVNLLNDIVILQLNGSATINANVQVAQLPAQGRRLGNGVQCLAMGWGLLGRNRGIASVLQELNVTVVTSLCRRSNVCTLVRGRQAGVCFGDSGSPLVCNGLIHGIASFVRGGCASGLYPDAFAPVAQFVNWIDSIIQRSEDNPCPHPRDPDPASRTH
Description: Into a 96-well plate were added 1 μL of each of the samples that was dissolved in DMSO, and 100 μL of elastase (derived from human leukocyte) adjusted to 10 μg/mL. Furthermore, to each of the wells was added to 50 μL of a substrate solution (Suc-(Ala)3-pNa) adjusted to 5 mM. A tris-HCL buffer (pH: 8.0) was used to adjust the final volume thereof to 200 μL. Under a condition at 37° C., the plate was heated for 2 hours. The absorbance of the sample at 405 nm was used as an index of the elastase activity, and the elastase inhibiting activity thereof was calculated in accordance with the following equation: The elastase inhibiting activity (%)=(the absorbance of each of the samples/the absorbance of the control)×100

B16F10 melanoma cells = test: Melanin production inhibition test using B16; type: cell-based; details: 0.1% (w/v), 72 hours, compared with arctigenin, n=3
Description: After 24 hours, the culture solution was removed. […] Furthermore, the cells were cultured for 72 hours.
The absorbance thereof was measured at 475 nm.

[2] = tested on: Endothelin-1 (ET-1) production from human epidermal keratinocytes; test: Evaluation on production inhibition of endothelin-1 (ET-1) in UVB-irradiated keratinocytes (ELISA); type: cell-based; details: UVB 80 mJ/cm^2, supernatant 48 hours after irradiation, relative to agent-free UVB control = 100
Description: Human epidermal keratinocytes were inoculated into 6-well plates to give an amount of 100000 cells per well, and then the cells were cultured for 3 days until the cells turned confluent. After it was verified that the cells turned confluent, their media were each substituted with PBS (−). The individual plates were irradiated with UVB at an irradiation intensity of 80 mJ/cm^2. After the irradiation with the UVB, DMEM in which arctigenin or each of the arctigenin derivatives was dissolved was added to one of the individual plates. After 48 hours from the irradiation, the supernatant (in the one plate) was collected, and the supernatant was centrifuged at 3000 rpm for 5 minutes. Furthermore, the supernatant therein was collected to prepare specimens for ELISA. As a control, a sample was used which was obtained by collecting a supernatant of an agent-free plate irradiated with UVB irradiation. A device used for measuring ET-1 was an Endthelin-1 Human EIA kit (manufactured by Assay Designs, Inc.). […] In each of FIGS. 1 to 3 and FIGS. 6 to 8, one of its vertical axes represents a relative value of each of the specimens when the ET-1 production amount of the control was regarded as 100. In each of FIGS. 1 to 3 and FIGS. 6 to 8, its graph line represents the respective cell survival rates (of the specimens) when the value of the control was regarded as 100%.

[3] = tested on: tyrosinase (originating from mushroom); test: Tyrosinase inhibiting activity measurement; type: biochemical; details: test concentration 0.01%, compared with arctigenin
Description: To each well of a 96-well plate were added 1 μL of a 1 w/w % of each of the samples (test concentration: 0.01%) that was dissolved in DMSO, 20 μL of a 400 U/mL of a tyrosinase solution (originating from mushroom), and 79 μL of distilled water. Thereto were added a reaction solution (0.1 mg/mL L-tyrosine solution (Wako Pure Chemical Industries, Ltd.)) and 100 μL of a 1.3-mM copper sulfate pentahydrate solution (Wako Pure Chemical Industries, Ltd.)/a 60-mM phosphate buffer (pH: 6.0). The resultant was incubated at 37° C. for one hour. Thereafter, the absorbance of the sample was measured at 640 nm. This was used as a measured value (testing sample measured value or control measured value). The tyrosinase inhibiting activity (%)=(the absorbance of each of the samples/the absorbance of the control)×100

`COc1ccc(C[C@H]2COC(=O)[C@@H]2Cc2ccc(OC(C)=O)c(OC)c2)cc1OC` [Example 1, Acetoxyarctigenin] was tested, and the elastase inhibiting capability [1] was “far stronger elastase inhibiting capability than arctigenin”.
With Arctigenin Propionate [Example 2] the “inhibition of the production of melanin per living cell” value (B16F10 melanoma cells) was “more significantly inhibited the production of melanin per living cell than arctigenin” and the elastase inhibiting capability [1] was “far stronger elastase inhibiting capability than arctigenin”.
For “Palmitate Arctigenin [Comparative Example 1]”, the “inhibition of the production of ET-1” value [2] was “does not significantly inhibit the production of ET-1” and the tyrosinase inhibiting capability [3] was “no tyrosinase inhibiting capability”.
